Experimental data: patent US6916616B2, “Stabilized aqueous nucleoside triphosphate solutions” (priority 1996, dated 2005)

What was measured:
Format in all cases: physicochemical
[1] = Stress experiments of d-NTP solutions at 35° C., triphosphate content by HPLC; conditions: pH 8.3 compared to pH 7.5, 35° C., three independent stress experiments, samples between 7 and 89 days
Description: d-NTP solutions at a concentration of 100 to 110 mmol/l were adjusted to pH values between 7.5 and 8.3 with sodium hydroxide solution. The sample was stored at 35° C., 22° C., 4° C. and −20° C. Aliquots were removed at various time points and the purity was examined by means of HPLC. The relative amount of the tri, di and monophosphate as well as of the free base was determined by integrating the areas. The stabilization was estimated by the following formula from three independent stress experiments of d-NTPs at pH 8.3 and 7.5 at 35° C. in which samples were taken at intervals between 7 and 89 days. Δ content (pH 8.3)−Δ content (7.5)×100 Δ content (pH 7.5) in which Δ content (pH . . . )=content (t=0)−content (t)

[2] = Stabilization at room temperature (real-time model, 204 days, 20° C.); conditions: for difference in decrease of triphosphate content pH 8.3 vs pH 7.5: 204 days
Description: d-NTP solutions at a concentration of 100 to 110 mmol/l were adjusted to pH values between 7.5 and 8.3 with sodium hydroxide solution. The sample was stored at 35° C., 22° C., 4° C. and −20° C. Aliquots were removed at various time points and the purity was examined by means of HPLC. The relative amount of the tri, di and monophosphate as well as of the free base was determined by integrating the areas.
After 204 days (20° C.) the difference in the pH stabilization became apparent (in the real-time model). […] In the case of d-GTP solutions the triphosphate content decreased for example by ca. 6.8% at pH 7.5 and by ca. 5.2% at pH 8.3 (difference 23%).

[3] = Determination of the pH optimum of the d-NTPs (35 days at 35° C., HPLC); conditions: 100 to 110 mmol/l
Description: d-NTP solutions (dCTP, dTTP, dUTP) at a concentration of 100 to 110 mmol/l were adjusted to pH values between 7.5 and 12 (d-ATP, dGTP not pH 7.9 and 8.3) with sodium hydroxide solution. The sample was stressed for 35 days at 35° C. and subsequently the purity was examined by means of HPLC. The relative amount of the tri, di and monophosphate as well as of the free base was determined by integrating the areas.

Structure (SMILES)	stabilization, average value [1]	stabilization, maximum value [1]	stabilization, minimum value [1]	difference in decrease of triphosphate content pH 8.3 vs pH 7.5 [2]	decrease of triphosphate content ([2]; pH 7.5, 204 days)	decrease of triphosphate content ([2]; pH 8.3, 204 days)	degradation up to pH 12 [3]
Nc1ncnc2c1ncn2[C@H]1C[C@H](O)[C@@H](COP(=O)(O)OP(=O)(O)OP(=O)(O)O)O1 [d-ATP]	19%	33%	9%	17%	ca. 7.6%	ca. 6.3%	
Nc1nc2c(ncn2[C@H]2C[C@H](O)[C@@H](COP(=O)(O)OP(=O)(O)OP(=O)(O)O)O2)c(=O)[nH]1 [d-GTP]	21%	30%	12%	23%	ca. 6.8%	ca. 5.2%	
Cc1cn([C@H]2C[C@H](O)[C@@H](COP(=O)(O)OP(=O)(O)OP(=O)(O)O)O2)c(=O)[nH]c1=O [d-TTP]	5%	17%	26%				
Nc1ccn([C@H]2C[C@H](O)[C@@H](COP(=O)(O)OP(=O)(O)OP(=O)(O)O)O2)c(=O)n1 [d-CTP]	20%	37%	10%				deaminated at pH 12 to form d-UTP
O=c1ccn([C@H]2C[C@H](O)[C@@H](COP(=O)(O)OP(=O)(O)OP(=O)(O)O)O2)c(=O)[nH]1 [d-UTP]	5%	15%	25%				
